Data reported in patent US10561638B2, “Methods for treating dependence” (Biotie Therapies, Inc., priority 2007, dated 2020).

Key:
[1] = system: tissue norepinephrine and dopamine levels; test: Tissue catecholamines in beagle dogs, 10, 30, 60 mg/kg/day for 4.5 days; type: in vivo
Method: This study was performed to determine the dopamine and norepinephrine concentrations in kidney medulla and kidney cortex from dogs dosed with nepicastat. Adult male beagle dogs were randomly assigned to four groups of 8 dogs per group and dosed by oral administration with nepicastat. Nepicastat was delivered in doses of 5, 15 and 30 mg/kg placed in single capsules. Vehicle was an empty capsule. Each dog received 2 doses daily, morning and afternoon (8-10 hours apart) for four days. On the fifth day, each dog received a single dose in the morning and the dogs were euthanized six hours after the last dose. Samples of kidney medulla and kidney cortex were rapidly harvested, weighed, placed in cold 0.4 M perchloric acid, frozen in liquid nitrogen and stored at −70° C.
To quantitate concentrations of norepinephrine (NE) and dopamine (D), each tissue was homogenized by brief sonication in 0.4 M perchloric acid. After sonication, the homogenates were centrifuged at 13,000 rpm in a microfuge for 30 minutes at 4° C. An aliquot of each supernatant was removed and spiked with 3,4-dihydroxybenzylamine (DHBA) as internal standard. The extract from each sample was subjected to HPLC separation using electrochemical detection. The method has a quantitation limit of 2.0 ng/mL and a linear range of 2.0 ng/mL to 400 ng/mL for each analyte.
Thirty-two male beagle dogs, weighing 10-12 kg, were randomly assigned to one of the following 4 treatment groups (n=8 per group): nepicastat at 0 mg/kg/day (placebo), 10 mg/kg/day (5 mg/kg b.i.d.), 30 mg/kg (15 mg/kg b.i.d.), or 60 mg/kg/day (30 mg/kg b.i.d.). Dog numbers 1-16 were assigned as dose group A and dog numbers 17-32 as dose group B. The terminal surgery for tissue harvest was performed over 2 days with 16 animals studied per day. Two or 3 days before the first compound administration each dog was weighed and skin regions overlying both cephalic, saphenous and jugular veins were shaved. Dosing consisted of oral administration of one capsule with the second given 8-10 hr later. Dogs were dosed as scheduled on days 1-3. On day 4, prior to the AM dose, 3 ml of blood were obtained from a jugular vein for determination of baseline plasma compound levels. The dog was then administered the AM dose, and at 1, 2, 4 and 8 hr following the dose additional 3 ml blood samples were collected for determination of plasma compound levels. Blood samples were put into tubes containing heparin, centrifuged at 4° C. and stored at −20° C. until analysis. The PM dose was then administered as scheduled. The AM dose was administered as scheduled on the days of surgery. Approximately 6 hr after the AM dose, a final 3 ml blood sample was taken from the jugular vein for determination of plasma compound levels. The dog was then anesthetized with pentobarbital Na (˜40 mg/kg), given i.v. in a cephalic or saphenous vein, and delivered to the necropsy room where an additional dose of pentobarbital Na was given (˜80 mg/kg, iv). The left ventricle, renal artery, kidney, renal medulla, renal cortex and cerebral cortex were then rapidly harvested, weighed, put into 2 ml iced 0.4M perchloric acid, frozen in liquid nitrogen and stored at −70° C. until analysis for catecholamines by HPLC using electrochemical detection. All tissue samples were divided into 2 portions, the second of which were immediately frozen in liquid nitrogen and stored at −70° C. for determination of tissue compound levels. A third transmural sample taken from the left ventricle was immediately frozen in liquid nitrogen and stored at −70° C. for use in receptor binding studies.
Ventricles were homogenized in 50 mM Tris-HCl, 5 mM Na2EDTA buffer (pH 7.4 at 4° C.) using a Polytron P-10 tissue disrupter (setting 10, 2×15 second bursts). Homogenates were centrifuged at 500×g for 10 minutes and the supernatants stored on ice. The pellets were washed by resuspension and centrifugation at 500×g and the supernatants combined. […]

pithed SHRs = test: Pressor response to pre-ganglionic nerve stimulation in pithed SHRs; type: in vivo, spontaneously hypertensive rats
Method: The in vivo hemodynamic activity of nepicastat was further assessed in conscious, restrained SHRs, a model having high sympathetic drive to cardiovascular tissues. Hemodynamic study in SHRs. Male SHRs (15-16 week old) were used in the study. The animals were lightly anesthetized with ether and the left femoral artery and vein were catheterized for measurement of blood pressure and drug administration, respectively. The animals were placed in restrainers and allowed to recover for 30-40 min. After obtaining baseline measurements, the animals were treated, orally, with either vehicle or the appropriate dose of nepicastat and hemodynamic parameters were continuously recorded for 4 h. The animals were then anesthetized with pentobarbital, placed on a heating pad (37° C.) and ventilated with a Harvard rodent ventilator. After administration of atropine (1 mg/kg, iv) and tubocurarine (1 mg/kg, iv), the animals were pithed through the orbit of the eye with a stainless steel rod. The […] rod was stimulated electrically with 1 ms pulses of 80V at different frequencies (0.15, 0.45, 1.5, 5, 15 Hz) to obtain frequency-pressor response curves. […] The response was slow in onset, reaching its plateau in 3-4 h. […] Following this study, the rats were pithed and the effects of nepicastat on the pressor response to pre-ganglionic nerve stimulation (PNS) of the spinal cord were evaluated 5 h after dosing.

[2] = renal medulla, 60 mg/kg/day, marginal (0.05<p<0.10)

With Cl.NCc1c[nH]c(=S)n1[C@H]1CCc2c(F)cc(F)cc2C1 [nepicastat, (S)-5-Aminomethyl-1-(5,7-difluoro-1,2,3,4-tetrahydronaphth-2-yl)-2,3-dihydro-2-thioxo-1H-imidazole hydrochloride] the increase in dopamine ([1]; cerebral cortex, 10 mg/kg/day) was 632%, the “increase in dopamine/norepinephrine ratio” value ([1]; cerebral cortex, 10 mg/kg/day) was 531% and the decrease in norepinephrine ([1]; cerebral cortex, 30 mg/kg/day) was 63%. The “increase in dopamine/norepinephrine ratio” value ([1]; cerebral cortex, 30 mg/kg/day) was 86%, the increase in dopamine ([1]; cerebral cortex, 30 mg/kg/day, marginal (0.05<p<0.10)) was 174% and the increase in dopamine ([1]; cerebral cortex, 60 mg/kg/day) was 411%. For the same compound, the “increase in dopamine/norepinephrine ratio” value ([1]; cerebral cortex, 60 mg/kg/day) was 612%, the “norepinephrine levels vs placebo” value ([1]; cerebral cortex, 10 and 60 mg/kg/day) was “not significantly (p>0.01) affected” and the “dose at which the plateau in DBH inhibition response begins” value ([1]; heart, renal artery and kidney) was 10 mg/kg/day. For the same compound, the decrease in norepinephrine ([1]; left ventricle, 10 mg/kg/day) was 85%, the “increase in dopamine/norepinephrine ratio” value ([1]; left ventricle, 10 mg/kg/day) was 852% and the decrease in norepinephrine ([1]; left ventricle, 30 mg/kg/day) was 58%. The “increase in dopamine/norepinephrine ratio” value ([1]; left ventricle, 30 mg/kg/day) was 279%, the decrease in norepinephrine ([1]; left ventricle, 60 mg/kg/day) was 79% and the “increase in dopamine/norepinephrine ratio” value ([1]; left ventricle, 60 mg/kg/day) was 607%. The “dopamine levels vs placebo” value ([1]; left ventricle, 10, 30 and 60 mg/kg/day) was “No significant changes”, the decrease in norepinephrine ([1]; renal artery, 10 mg/kg/day) was 86% and the increase in dopamine ([1]; renal artery, 10 mg/kg/day) was 180%. For the same compound, the “increase in dopamine/norepinephrine ratio” value ([1]; renal artery, 10 mg/kg/day) was 1711%, the decrease in norepinephrine ([1]; renal artery, 30 mg/kg/day) was 81% and the increase in dopamine ([1]; renal artery, 30 mg/kg/day) was 273%. The “increase in dopamine/norepinephrine ratio” value ([1]; renal artery, 30 mg/kg/day) was 1767%, the decrease in norepinephrine ([1]; renal artery, 60 mg/kg/day) was 85% and the increase in dopamine ([1]; renal artery, 60 mg/kg/day) was 268%. The “increase in dopamine/norepinephrine ratio” value ([1]; renal artery, 60 mg/kg/day) was 1944%, the decrease in norepinephrine ([1]; renal cortex, 10 mg/kg/day) was 86% and the increase in dopamine ([1]; renal cortex, 10 mg/kg/day) was 156%. For the same compound, the “increase in dopamine/norepinephrine ratio” value ([1]; renal cortex, 10 mg/kg/day) was 1653%, the decrease in norepinephrine ([1]; renal cortex, 30 mg/kg/day) was 66% and the increase in dopamine ([1]; renal cortex, 30 mg/kg/day) was 502%. The “increase in dopamine/norepinephrine ratio” value ([1]; renal cortex, 30 mg/kg/day) was 1440%, the decrease in norepinephrine ([1]; renal cortex, 60 mg/kg/day) was 85% and the increase in dopamine ([1]; renal cortex, 60 mg/kg/day) was 208%. For the same compound, the “increase in dopamine/norepinephrine ratio” value ([1]; renal cortex, 60 mg/kg/day) was 1693%, the decrease in norepinephrine ([1]; renal medulla, 10 mg/kg/day) was 72% and the “increase in dopamine/norepinephrine ratio” value ([1]; renal medulla, 10 mg/kg/day) was 555%. For the same compound, the increase in dopamine ([1]; renal medulla, 10 mg/kg/day, marginal (0.05<p<0.10)) was 150%, the increase in dopamine ([1]; renal medulla, 30 mg/kg/day) was 522% and the “increase in dopamine/norepinephrine ratio” value ([1]; renal medulla, 30 mg/kg/day) was 636%. The “increase in dopamine/norepinephrine ratio” value ([1]; renal medulla, 60 mg/kg/day) was 677%, the decrease in norepinephrine [1, 2] was 69% and the increase in dopamine [1, 2] was 156%. The “hypertensive and tachycardic responses to preganglionic nerve stimulation” value (pithed SHRs; 3 mg/kg p.o., 5 hours after dosing) was “significantly attenuated the hypertensive and tachycardic responses”, the “heart rate response to PNS” value (pithed SHRs; 5 h after dosing) was “not significantly affected” and the “maximum shift in the frequency-pressor response curve” value (pithed SHRs; 5 h after dosing) was ~5 fold.
